Reference: ChEMBL document CHEMBL1201862, “PubChem BioAssay data set” (2004)
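96-well plates; 48 h exposure; 5 concentrations. Endpoints by linear interpolation between flanking doses. Not reached: highest tested concentration assigned. The concentration for 50% growth inhibition is given as GI50.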 The source made the active and inactive calls. No stated cut-off is given here; in the data, active = GI50 up to about 1.1 µM and inactive = higher.

Experiments:
Test in all cases: growth of human tumour cells (NCI), 48 h
[1] = system: SK-OV-3
[2] = system: EKVX
[3] = system: SN12C
[4] = system: HT-29
[5] = system: CAKI-1
[6] = system: HOP-62
[7] = system: SF-268
[8] = system: TK-10
[9] = system: PC-3
[10] = system: 786-0
[11] = system: U-251
[12] = system: COLO 205
[13] = system: MDA-MB-231
[14] = system: NCI-H522
[15] = system: HCT-116
[16] = system: SNB-75
[17] = system: SR
[18] = system: K562
[19] = system: MDA-N

Measured: GI50

COC(=O)CCC(C)[C@H]1CCC2C3C(C[C@H](OC(C)=O)[C@@]21C)[C@@]1(C)CCC2(C[C@H]1C[C@H]3OC(C)=O)OOC1(CCC(C(C)(C)C)CC1)OO2 (some centres not stated)
inactive: [1] > 100 µM | [2] 4.12 µM | [3] 58.2 µM | [4] > 100 µM | [5] 12.8 µM | [6] 9.73 µM | [7] 18.6 µM | [8] 17.7 µM | [9] 6.7 µM | [10] 13.5 µM | [11] 6.73 µM | [12] > 100 µM | [13] 46.3 µM | [14] 21 µM | [15] 3.97 µM | [16] 37.9 µM | [17] 4.45 µM | [18] 8.69 µM

COC(=O)c1csc(-c2nc(CCNC(=O)OC(C)(C)C)sc2Br)n1
inactive: [1] > 100 µM | [2] > 100 µM | [3] > 100 µM | [4] > 100 µM | [6] > 100 µM | [7] > 100 µM | [19] > 100 µM | [8] > 100 µM | [9] 55.7 µM | [10] > 100 µM | [11] > 100 µM | [12] > 100 µM | [15] > 100 µM | [16] > 100 µM | [17] 81.8 µM | [18] > 100 µM

CCCCN(CCCC)C(=C(C(Cl)=C(Cl)Cl)[N+](=O)[O-])N(CCCC)CCCC
inactive: [1] > 100 µM | [2] 67.5 µM | [3] > 100 µM | [5] > 100 µM | [6] > 100 µM | [7] > 100 µM | [19] > 100 µM | [8] > 100 µM | [9] 57 µM | [10] > 100 µM | [11] 45.9 µM | [12] > 100 µM | [13] 65.2 µM | [14] 48.3 µM | [15] 67.9 µM | [16] > 100 µM
active: [18] 0.0119 µM

CC(C)C1=CC(=O)C(C)(C2C(O)CC3(C)C4CC=C5C(CCC(OC6OC(CO)C(O)C(O)C6OC6OC(C)C(O)C(O)C6O)C5(C)C)C4(C)C(=O)CC23C)O1 (configuration not stated)
inactive: [1] > 100 µM | [2] > 100 µM | [3] > 100 µM | [4] > 100 µM | [5] > 100 µM | [6] > 100 µM | [7] > 100 µM | [19] > 100 µM | [9] > 100 µM | [10] > 100 µM | [11] > 100 µM | [12] > 100 µM | [13] > 100 µM | [14] > 100 µM | [15] > 100 µM | [16] > 100 µM | [18] > 100 µM

Cc1ccc(/C=c2\c(=O)[nH]c3nc4ccccc4c(=O)n23)cc1
inactive: [1] > 100 µM | [3] 28.8 µM | [5] > 100 µM | [6] > 100 µM | [7] 45.5 µM | [19] 23.8 µM | [8] > 100 µM | [9] 55.5 µM | [10] 39.4 µM | [11] 19.9 µM | [12] 18.3 µM | [13] 43.9 µM | [14] 29 µM | [15] 28.5 µM | [16] 28.6 µM

CC(=O)N(C(=O)CC(=O)N1N=C(c2ccccc2)C(/N=N/c2ccccc2[N+](=O)[O-])C1=O)c1ccc(Cl)cc1 (configuration not stated)
inactive: [1] > 10 µM | [2] > 10 µM | [3] > 10 µM | [4] > 10 µM | [5] > 10 µM | [6] > 10 µM | [7] > 10 µM | [19] > 10 µM | [8] > 10 µM | [9] > 10 µM | [10] > 10 µM | [11] > 10 µM | [12] > 10 µM | [13] > 10 µM | [14] > 10 µM | [15] > 10 µM | [16] 9.55 µM | [18] > 10 µM

CC1NOC(NS(=O)(=O)c2ccc(/N=N/c3c(O)c(C(=O)O)cc4ccccc34)cc2)C1C (configuration not stated)
inactive: [1] > 100 µM | [2] > 100 µM | [4] > 100 µM | [5] > 100 µM | [6] > 100 µM | [7] > 100 µM | [8] > 100 µM | [9] > 100 µM | [10] > 100 µM | [11] > 100 µM | [12] > 100 µM | [13] > 100 µM | [14] 72.4 µM | [15] > 100 µM | [16] > 100 µM | [17] > 100 µM | [18] > 100 µM

COc1ccc(OC)c(/C=C2/C(=O)N/C(=N\C(C)=O)N2C)c1
inactive: [1] > 100 µM | [2] > 100 µM | [3] > 100 µM | [4] > 100 µM | [5] > 100 µM | [6] > 100 µM | [7] > 100 µM | [19] > 100 µM | [8] > 100 µM | [9] > 100 µM | [10] > 100 µM | [11] > 100 µM | [12] > 100 µM | [13] > 100 µM | [14] > 100 µM | [15] > 100 µM | [16] > 100 µM

CCC(C)C(C(=O)N/N=C1/SCC(=O)N1C)C(=O)N/N=C1/SCC(=O)N1C (configuration not stated)
inactive: [1] > 100 µM | [2] > 100 µM | [3] > 100 µM | [4] > 100 µM | [5] > 100 µM | [6] > 100 µM | [7] > 100 µM | [19] > 100 µM | [8] > 100 µM | [9] > 100 µM | [10] > 100 µM | [11] > 100 µM | [12] > 100 µM | [13] > 100 µM | [14] > 100 µM | [15] > 100 µM | [16] > 100 µM | [18] > 100 µM

CCCCCCCCOP(=O)(O)OP(=O)(O)OCC1OC(n2ccc(N)nc2=O)C(O)C1O (configuration not stated)
inactive: [1] > 100 µM | [2] > 100 µM | [3] > 100 µM | [4] > 100 µM | [5] > 100 µM | [6] > 100 µM | [7] > 100 µM | [19] > 100 µM | [8] > 100 µM | [9] > 100 µM | [10] > 100 µM | [11] > 100 µM | [12] > 100 µM | [13] > 100 µM | [15] > 100 µM | [16] > 100 µM | [18] > 100 µM

CC(=O)C1C(=O)C(=O)N(c2ccc([N+](=O)[O-])cc2Cl)C1=O (configuration not stated)
inactive: [1] > 100 µM | [2] > 100 µM | [3] > 100 µM | [4] > 100 µM | [5] > 100 µM | [6] > 100 µM | [7] > 100 µM | [19] > 100 µM | [8] > 100 µM | [9] 82.2 µM | [10] > 100 µM | [11] > 100 µM | [12] > 100 µM | [13] > 100 µM | [14] > 100 µM | [15] > 100 µM | [16] > 100 µM

O=C(O)C(Cc1c[nH]c2ccccc12)N1C(=O)c2ccccc2C1=O (configuration not stated)
inactive: [1] > 100 µM | [2] > 100 µM | [3] > 100 µM | [4] > 100 µM | [5] > 100 µM | [6] > 100 µM | [7] > 100 µM | [19] > 100 µM | [8] > 100 µM | [9] > 100 µM | [10] > 100 µM | [11] > 100 µM | [12] > 100 µM | [13] > 100 µM | [14] > 100 µM | [15] > 100 µM | [16] > 100 µM

COc1cc(C(c2c(O)c3ccccc3oc2=O)c2c(O)c3ccccc3oc2=O)ccc1O
inactive: [1] > 100 µM | [2] 27.9 µM | [3] 19.1 µM | [4] 21.1 µM | [5] 20.8 µM | [6] 44.4 µM | [7] 21.5 µM | [19] 19.9 µM | [8] 20.3 µM | [9] 33.7 µM | [10] 20.2 µM | [11] 22.9 µM | [12] 17.2 µM | [13] 21.1 µM | [14] 20.8 µM | [15] 34 µM | [16] 20.7 µM | [18] 39.4 µM

Oc1cc(Cc2ccccc2)c(Cc2ccccc2)cc1O
inactive: [1] > 10 µM | [2] > 10 µM | [3] > 10 µM | [4] > 10 µM | [5] > 10 µM | [6] > 10 µM | [7] > 10 µM | [19] 1.67 µM | [9] > 10 µM | [10] > 10 µM | [11] > 10 µM | [12] > 10 µM | [13] > 10 µM | [14] > 10 µM | [15] > 10 µM | [16] 4.62 µM | [18] > 10 µM

O=[N+]([O-])c1nccn1CC1OC(n2ccnc2[N+](=O)[O-])C(O)C(O)C1O (configuration not stated)
inactive: [2] > 100 µM | [4] > 100 µM | [6] > 100 µM | [19] > 100 µM | [8] > 100 µM | [9] > 100 µM | [10] > 100 µM | [11] > 100 µM | [12] > 100 µM | [15] > 100 µM | [16] > 100 µM | [17] > 100 µM | [18] > 100 µM
